Data from ChEMBL document CHEMBL1201861, “Genomics of Drug Sensitity in Cancer screening data, Wellcome Trust Sanger Institute”.

What was measured:
Experiment in all cases: cells
MOLT-16 = type: functional, cell-based, Homo sapiens; settings: Homo sapiens, MOLT-16;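 note: growth inhibition of human MOLT-16 cells, read out with a cell viability assay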
Description: SANGER: Inhibition of human MOLT-16 cell growth in a cell viability assay.

EW-11 = type: functional, cell-based, Homo sapiens; settings: Homo sapiens, EW-11;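 note: growth inhibition of human EW-11 cells, measured with a cell viability assay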
Description: SANGER: Inhibition of human EW-11 cell growth in a cell viability assay.

LB831-BLC = type: functional, cell-based, Homo sapiens; settings: Homo sapiens, LB831-BLC;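 note: growth inhibition of LB831-BLC cells, read out with a cell viability assay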
Description: SANGER: Inhibition of human LB831-BLC cell growth in a cell viability assay.

ES4 = type: functional, cell-based, Homo sapiens; settings: Homo sapiens, ES4;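 note: growth inhibition of human ES4 cells, read out by a cell viability assay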
Description: SANGER: Inhibition of human ES4 cell growth in a cell viability assay.

MFM-223 = type: functional, cell-based, Homo sapiens; settings: Homo sapiens, MFM-223
Description: SANGER: Inhibition of human MFM-223 cell growth in a cell viability assay.

DJM-1 = type: functional, cell-based, Homo sapiens; settings: Homo sapiens, DJM-1;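 note: growth inhibition of human DJM-1 cells, read out by a cell viability assay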
Description: SANGER: Inhibition of human DJM-1 cell growth in a cell viability assay.

MZ7-mel = type: functional, cell-based, Homo sapiens; settings: Homo sapiens, MZ7-mel;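 note: growth inhibition of human MZ7-mel cells, measured by a cell viability assay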
Description: SANGER: Inhibition of human MZ7-mel cell growth in a cell viability assay.

Mo = type: functional, cell-based, Homo sapiens; settings: Homo sapiens, Mo
Description: SANGER: Inhibition of human Mo-T cell growth in a cell viability assay.

SCC-15 = type: functional, cell-based, Homo sapiens; settings: Homo sapiens, SCC-15;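 note: growth inhibition of SCC-15 cells, read out with a cell viability assay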
Description: SANGER: Inhibition of human SCC-15 cell growth in a cell viability assay.

D-392MG = type: functional, cell-based, Homo sapiens; settings: Homo sapiens, D-392MG
ES7 = type: functional, cell-based, Homo sapiens; settings: Homo sapiens, ES7;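 note: growth inhibition of cultured human ES7 cells, read out as cell viability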
Description: SANGER: Inhibition of human ES7 cell growth in a cell viability assay.

U-87 MG = type: functional, cell-based, Homo sapiens, U-87MG ATCC; settings: Homo sapiens, U-87 MG;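 note: growth inhibition of the cells measured with a viability assay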
Description: SANGER: Inhibition of human U-87-MG cell growth in a cell viability assay.

697 = type: functional, cell-based, Homo sapiens; settings: Homo sapiens
Description: SANGER: Inhibition of human 697 cell growth in a cell viability assay.

A4-Fuk = type: functional, cell-based, Homo sapiens; settings: Homo sapiens, A4-Fuk;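 note: growth inhibition of A4-Fuk cells, read out by a cell viability assay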
Description: SANGER: Inhibition of human A4-Fuk cell growth in a cell viability assay.

SNB-75 = type: functional, cell-based, Homo sapiens; settings: Homo sapiens, SNB-75;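 note: cell viability assay measuring growth inhibition of human SNB-75 cells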
Description: SANGER: Inhibition of human SNB75 cell growth in a cell viability assay.

NB69 = type: functional, cell-based, Homo sapiens; settings: Homo sapiens, NB69;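 note: growth inhibition of NB69 cells, determined by a cell viability assay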
Description: SANGER: Inhibition of human NB69 cell growth in a cell viability assay.

SW982 = type: functional, cell-based, Homo sapiens; settings: Homo sapiens, SW982;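 note: growth inhibition of SW982 cells, read out with a cell viability assay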
Description: SANGER: Inhibition of human SW982 cell growth in a cell viability assay.

SW872 = type: functional, cell-based, Homo sapiens; settings: Homo sapiens, SW872;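 note: growth inhibition of SW872 cells, read out by a viability assay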
Description: SANGER: Inhibition of human SW872 cell growth in a cell viability assay.

8-MG-BA = type: functional, cell-based, Homo sapiens; settings: Homo sapiens, 8-MG-BA;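 note: growth inhibition of 8-MG-BA cells, read out with a cell viability assay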
Description: SANGER: Inhibition of human 8-MG-BA cell growth in a cell viability assay.

NKM-1 = type: functional, cell-based, Homo sapiens; settings: Homo sapiens, NKM-1;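 note: growth inhibition of NKM-1 cells, read out with a cell viability assay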
Description: SANGER: Inhibition of human NKM-1 cell growth in a cell viability assay.

LB771-HNC = type: functional, cell-based, Homo sapiens; settings: Homo sapiens, LB771-HNC;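 note: growth inhibition of LB771-HNC human cells, read out with a cell viability assay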
Description: SANGER: Inhibition of human LB771-HNC cell growth in a cell viability assay.

MOLT-4 = type: functional, cell-based, Homo sapiens; settings: Homo sapiens, MOLT-4;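 note: growth inhibition of MOLT-4 cells, determined with a cell viability readout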
Description: SANGER: Inhibition of human MOLT-4 cell growth in a cell viability assay.

SW 962 = type: functional, cell-based, Homo sapiens; settings: Homo sapiens, SW 962;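 note: growth inhibition of human SW962 cells, read out by a cell viability assay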
Description: SANGER: Inhibition of human SW962 cell growth in a cell viability assay.

NOS-1 = type: functional, cell-based, Homo sapiens; settings: Homo sapiens, NOS-1;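 note: growth inhibition of the human NOS-1 cell line, read out with a cell viability assay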
Description: SANGER: Inhibition of human NOS-1 cell growth in a cell viability assay.

TE-5 = type: functional, cell-based, Homo sapiens; settings: Homo sapiens, TE-5;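 note: inhibition of cell growth, read out by a cell viability assay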
Description: SANGER: Inhibition of human TE-5 cell growth in a cell viability assay.

EKVX = type: functional, cell-based, Homo sapiens; settings: Homo sapiens, EKVX;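 note: growth inhibition of human EKVX cells, read out with a cell viability assay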
Description: SANGER: Inhibition of human EKVX cell growth in a cell viability assay.

GAK = type: functional, cell-based, Homo sapiens; settings: Homo sapiens, GAK;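 note: cell growth inhibition read out by a cell viability assay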
Description: SANGER: Inhibition of human GAK cell growth in a cell viability assay.

MEG-01 = type: functional, cell-based, Homo sapiens; settings: Homo sapiens, MEG-01;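 note: growth inhibition of MEG-01 cells, read out by a cell viability assay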
Description: SANGER: Inhibition of human MEG-01 cell growth in a cell viability assay.

LS-1034 = type: functional, cell-based, Homo sapiens; settings: Homo sapiens, LS-1034
Description: SANGER: Inhibition of human LS-1034 cell growth in a cell viability assay.

SF-268 = type: functional, cell-based, Homo sapiens; settings: Homo sapiens, SF-268;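 note: growth inhibition of SF-268 cells determined with a cell viability assay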
Description: SANGER: Inhibition of human SF268 cell growth in a cell viability assay.

NB6 = type: functional, cell-based, Homo sapiens; settings: Homo sapiens, NB6
Description: SANGER: Inhibition of human NB6 cell growth in a cell viability assay.

IST-SL1 = type: functional, cell-based, Homo sapiens; settings: Homo sapiens, IST-SL1;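 note: growth inhibition of human IST-SL1 cells, read out with a cell viability assay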
Description: SANGER: Inhibition of human IST-SL1 cell growth in a cell viability assay.

BV-173 = type: functional, cell-based, Homo sapiens; settings: Homo sapiens, BV-173
Description: SANGER: Inhibition of human BV-173 cell growth in a cell viability assay.

L-363 = type: functional, cell-based, Homo sapiens; settings: Homo sapiens, L-363
Description: SANGER: Inhibition of human L-363 cell growth in a cell viability assay.

TGBC24TKB = type: functional, cell-based, Homo sapiens; settings: Homo sapiens, TGBC24TKB;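 note: growth inhibition of human TGBC24TKB cells, read out with a cell viability assay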
Description: SANGER: Inhibition of human TGBC24TKB cell growth in a cell viability assay.

MHH-PREB-1 = type: functional, cell-based, Homo sapiens; settings: Homo sapiens, MHH-PREB-1;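 note: cell viability assay measuring inhibition of proliferation of human MHH-PREB-1 cells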
Description: SANGER: Inhibition of human MHH-PREB-1 cell growth in a cell viability assay.

RCC10RGB = type: functional, cell-based, Homo sapiens; settings: Homo sapiens, RCC10RGB;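 note: growth inhibition of human RCC10RGB cells, read out by a cell viability assay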
Description: SANGER: Inhibition of human RCC10RGB cell growth in a cell viability assay.

P30-OHK = type: functional, cell-based, Homo sapiens; settings: Homo sapiens, P30-OHK;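 note: growth inhibition of the P30-OHK cell line, read out with a cell viability assay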
Description: SANGER: Inhibition of human P30-OHK cell growth in a cell viability assay.

HL-60 = type: functional, cell-based, Homo sapiens; settings: Homo sapiens, HL-60;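 note: growth inhibition of human HL-60 cells, read out with a cell viability assay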
Description: SANGER: Inhibition of human HL-60 cell growth in a cell viability assay.

HD-MY-Z = type: functional, cell-based, Homo sapiens; settings: Homo sapiens, HD-MY-Z;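 note: growth inhibition of HD-MY-Z cells, read out with a cell viability assay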
Description: SANGER: Inhibition of human HD-MY-Z cell growth in a cell viability assay.

SH-4 = type: functional, cell-based, Homo sapiens; settings: Homo sapiens, SH-4;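 note: growth inhibition of SH-4 cells, read out with a cell viability assay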
Description: SANGER: Inhibition of human SH-4 cell growth in a cell viability assay.

ES5 = type: functional, cell-based, Homo sapiens; settings: Homo sapiens, ES5;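 note: growth inhibition of human ES5 cells, read out by a cell viability assay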
Description: SANGER: Inhibition of human ES5 cell growth in a cell viability assay.

TE-8 = type: functional, cell-based, Homo sapiens; settings: Homo sapiens, TE-8;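 note: growth inhibition of TE-8 cells, measured with a cell viability readout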
Description: SANGER: Inhibition of human TE-8 cell growth in a cell viability assay.

NB12 = type: functional, cell-based, Homo sapiens; settings: Homo sapiens, NB12;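 note: growth inhibition of human NB12 cells, read out by a cell viability assay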
Description: SANGER: Inhibition of human NB12 cell growth in a cell viability assay.

HC-1 = type: functional, cell-based, Homo sapiens; settings: Homo sapiens, HC-1;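 note: growth inhibition of HC-1 cells measured by a cell viability assay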
Description: SANGER: Inhibition of human HC-1 cell growth in a cell viability assay.

LB2241-RCC = type: functional, cell-based, Homo sapiens; settings: Homo sapiens, LB2241-RCC;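 note: cell viability assay measuring how strongly the cultured human renal carcinoma line is prevented from growing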
Description: SANGER: Inhibition of human LB2241-RCC cell growth in a cell viability assay.

HAL-01 = type: functional, cell-based, Homo sapiens; settings: Homo sapiens, HAL-01;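 note: growth inhibition of human HAL-01 cells, read out with a cell viability assay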
Description: SANGER: Inhibition of human HAL-01 cell growth in a cell viability assay.

NCI-H1838 = type: functional, cell-based, Homo sapiens; settings: Homo sapiens, NCI-H1838;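 note: growth inhibition of NCI-H1838 cells, determined with a cell viability readout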
Description: SANGER: Inhibition of human NCI-H1838 cell growth in a cell viability assay.

NCI-H446 = type: functional, cell-based, Homo sapiens; settings: Homo sapiens, NCI-H446;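 note: growth inhibition of NCI-H446 cells determined by a cell viability assay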
Description: SANGER: Inhibition of human NCI-H446 cell growth in a cell viability assay.

ETK-1 = type: functional, cell-based, Homo sapiens; settings: Homo sapiens, ETK-1;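 note: growth inhibition of human ETK-1 cells, read out with a cell viability assay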
Description: SANGER: Inhibition of human ETK-1 cell growth in a cell viability assay.

Nc1cccc2c1CN(C1CCC(=O)NC1=O)C2=O (stereo not given) [LENALIDOMIDE] was tested, and the IC50 (MOLT-16) was > 5 µM, the IC50 (EW-11) was > 5 µM and the IC50 (LB831-BLC) was > 5 µM. The IC50 (ES4) was > 5 µM, the IC50 (MFM-223) was > 5 µM and the IC50 (DJM-1) was > 5 µM. The IC50 (MZ7-mel) was > 5 µM, the IC50 (Mo) was > 5 µM and the IC50 (SCC-15) was > 5 µM. For the same molecule, the IC50 (D-392MG) was > 5 µM, the IC50 (ES7) was > 5 µM and the IC50 (U-87 MG) was > 5 µM. The IC50 697 was > 5 µM, the IC50 (A4-Fuk) was > 5 µM and the IC50 (SNB-75) was > 5 µM. For the same molecule, the IC50 (NB69) was > 5 µM, the IC50 (SW982) was > 5 µM and the IC50 (SW872) was > 5 µM. The IC50 (8-MG-BA) was > 5 µM, the IC50 (NKM-1) was > 5 µM and the IC50 (LB771-HNC) was 2.15 µM. For the same molecule, the IC50 (MOLT-4) was > 5 µM, the IC50 (SW 962) was > 5 µM and the IC50 (NOS-1) was > 5 µM. The IC50 (TE-5) was > 5 µM, the IC50 (EKVX) was > 5 µM and the IC50 (GAK) was > 5 µM. The IC50 (MEG-01) was > 5 µM, the IC50 (LS-1034) was > 5 µM and the IC50 (SF-268) was > 5 µM. For the same molecule, the IC50 (NB6) was > 5 µM, the IC50 (IST-SL1) was > 5 µM and the IC50 (BV-173) was > 5 µM. For the same molecule, the IC50 (L-363) was 2.92 µM, the IC50 (TGBC24TKB) was > 5 µM and the IC50 (MHH-PREB-1) was > 5 µM. The IC50 (RCC10RGB) was > 5 µM, the IC50 (P30-OHK) was > 5 µM and the IC50 (HL-60) was > 5 µM. The IC50 (HD-MY-Z) was > 5 µM, the IC50 (SH-4) was > 5 µM and the IC50 (ES5) was > 5 µM. For the same molecule, the IC50 (TE-8) was > 5 µM, the IC50 (NB12) was > 5 µM and the IC50 (HC-1) was > 5 µM. The IC50 (LB2241-RCC) was > 5 µM, the IC50 (HAL-01) was > 5 µM and the IC50 (NCI-H1838) was > 5 µM. The IC50 (NCI-H446) was > 5 µM and the IC50 (ETK-1) was > 5 µM.
